Source: patent US10975083B2, “Blood-brain barrier-penetrant dopamine-β-hydroxylase inhibitors” (BIAL—PORTELA & Cᵃ, S.A., priority 2016, dated 2021)

Assays:
[1] = target: T1, DβH (Homo sapiens, UniProt P09172); experiment: DβH inhibition cell assay (SK-N-SH cellular homogenates, tyramine to octopamine); type: biochemical; details: SK-N-SH cell homogenate; for remaining activity at 0.1 µM: inhibitor 0.1 μM, read-out: DβH activity in % of Ctrl (0.1 μM); for remaining activity at 1 µM: inhibitor 1 μM, read-out: DβH activity in % of Ctrl (1 μM)
T1 construct: reaction mixture (total volume 500 μl) contained: cellular homogenate (75 μg total protein); host or cells: SK-N-SH cell homogenate
T1 sequence (P09172 1-617): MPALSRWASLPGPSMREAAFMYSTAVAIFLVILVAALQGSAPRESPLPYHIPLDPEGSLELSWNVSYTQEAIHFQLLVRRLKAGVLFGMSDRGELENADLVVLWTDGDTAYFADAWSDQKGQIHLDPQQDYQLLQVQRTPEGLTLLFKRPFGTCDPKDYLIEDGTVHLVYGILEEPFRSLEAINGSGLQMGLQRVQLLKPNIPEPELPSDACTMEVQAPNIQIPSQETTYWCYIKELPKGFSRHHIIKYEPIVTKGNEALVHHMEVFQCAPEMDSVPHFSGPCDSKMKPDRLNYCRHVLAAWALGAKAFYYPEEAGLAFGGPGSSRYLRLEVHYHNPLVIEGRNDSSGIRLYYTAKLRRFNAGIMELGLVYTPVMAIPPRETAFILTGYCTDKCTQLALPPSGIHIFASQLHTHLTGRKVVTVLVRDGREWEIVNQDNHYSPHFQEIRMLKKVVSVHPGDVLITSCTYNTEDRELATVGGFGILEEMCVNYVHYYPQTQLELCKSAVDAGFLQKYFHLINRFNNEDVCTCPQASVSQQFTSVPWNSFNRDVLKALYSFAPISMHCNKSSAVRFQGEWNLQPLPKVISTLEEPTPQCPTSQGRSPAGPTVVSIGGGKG

[2] = in vitro; details: dog, MDCK, pH 7.4

SMILES | remaining activity at 0.1 µM [1] [%] | remaining activity at 1 µM [1] [%] | remaining activity at 10 µM ([1]; inhibitor 10 μM, read-out: DβH activity in % of Ctrl (10 μM)) [%] | Papp A→B at 30 min, 50 μM [2] [×10⁻⁶ cm/s]
Fc1cccc([C@]23C[C@H]2c2c[nH]c(=S)n2C3)c1F [Example 66, (5aS,6aR)-5a-(2,3-difluorophenyl)-5,5a,6,6a-tetrahydrocyclopropa[3,4]pyrrolo[1,2-c]imidazole-3(2H)-thione] | 51.1 | 7.9 | – | –
Fc1ccc([C@]23C[C@H]2c2c[nH]c(=S)n2C3)cc1F [Example 71, (5aS,6aR)-5a-(3,4-difluorophenyl)-5,5a,6,6a-tetrahydrocyclopropa[3,4]pyrrolo[1,2-c]imidazole-3(2H)-thione] | – | 48.5 | – | –
Fc1cc(F)c(F)c([C@H]2Cc3c[nH]c(=S)n3C2)c1F [Example 62, (R)-6-(2,3,5,6-tetrafluorophenyl)-6,7-dihydro-2H-pyrrolo[1,2-c]imidazole-3(5H)-thione] | 43.1 | 9.8 | – | –
Fc1cc(F)c(F)c([C@H]2CC3CNC(=S)N3C2)c1F (stereo partly drawn) [Example 111, (6R)-6-(2,3,5,6-tetrafluorophenyl)tetrahydro-1H-pyrrolo[1,2-c]imidazole-3(2H)-thione] | – | 48.3 | – | –
CC(C)NCC(O)COc1cccc2ccccc12 (stereo not shown) [Propranolol, reference compound] | – | – | – | 63.1
Cc1[nH]c(=S)n2c1C[C@H](c1c(F)c(F)cc(F)c1F)C2 [Example 96, (R)-1-methyl-6-(2,3,5,6-tetrafluorophenyl)-2,5,6,7-tetrahydro-3H-pyrrolo[1,2-c]imidazole-3-thione] | 32 | 15 | – | –
S=c1[nH]cc2n1CC(C1CCCCC1)C2 (stereo not shown) [Example 81, 6-cyclohexyl-6,7-dihydro-2H-pyrrolo[1,2-c]imidazole-3(5H)-thione] | – | 59.4 | – | –

Results, then the compound that gave them:

remaining activity at 0.1 µM [1] [%] | remaining activity at 1 µM [1] [%] | remaining activity at 10 µM ([1]; inhibitor 10 μM, read-out: DβH activity in % of Ctrl (10 μM)) [%] | Papp A→B at 30 min, 50 μM [2] [×10⁻⁶ cm/s] | SMILES
97.9 | 58.6 | 9.2 | 63.1 | Fc1ccc(F)c([C@@]23C[C@@H]2c2c[nH]c(=S)n2C3)c1 [Example 57, (5aR,6aS)-5a-(2,5-difluorophenyl)-5,5a,6,6a-tetrahydrocyclopropa[3,4]pyrrolo[1,2-c]imidazole-3(2H)-thione]
3.3 | 0 | – | 79.4 | NC(=S)N1CC2CC2(c2cc(F)ccc2F)C1 (stereo not shown) [Example 38, 1-(2,5-difluorophenyl)-3-azabicyclo[3.1.0]hexane-3-carbothioamide]
46.1 | 6.7 | – | 100 | NC(=S)N1CC[C@@H](c2cc(F)cc(F)c2)C1 [Example 25, (S)-3-(3,5-difluorophenyl)pyrrolidine-1-carbothioamide]
5.9 | 0 | – | 100 | NC(=S)N1CCC(c2c(F)c(F)cc(F)c2F)C1 (stereo not shown) [Example 23, 3-(2,3,5,6-Tetrafluorophenyl)pyrrolidine-1-carbothioamide]
– | 27.3 | – | 100 | Fc1ccc(F)c(C2Cc3c[nH]c(=S)n3C2)c1 (stereo not shown) [Example 52, 6-(2,5-difluorophenyl)-6,7-dihydro-2H-pyrrolo[1,2-c]imidazole-3(5H)-thione]
0.2 | 3.3 | – | – | NC(=S)N1C[C@@H]2C[C@]2(c2cccs2)C1 [Example 28, (1R,5R)-1-(thiophen-2-yl)-3-azabicyclo[3.1.0]hexane-3-carbothioamide]
4 | 0 | – | – | NC(=S)N1C[C@@H]2C[C@]2(c2cc(F)cc(F)c2)C1 [Example 36, (1S,5R)-1-(3,5-difluorophenyl)-3-azabicyclo[3.1.0]hexane-3-carbothioamide]
– | 39.9 | – | – | Cc1[nH]c(=S)n2c1C[C@@H](c1c(F)cccc1F)C2 [Example 98, (S)-6-(2,6-difluorophenyl)-1-methyl-2,5,6,7-tetrahydro-3H-pyrrolo[1,2-c]imidazole-3-thione]
– | 17.5 | – | – | NC(=S)N1CC[C@@H](c2c(F)cc(F)cc2F)C1 [Example 21, (S)-3-(2,4,6-trifluorophenyl)pyrrolidine-1-carbothioamide]
